Experimental data: patent publication US6468983B2, “RNase L activators and antisense oligonucleotides effective to treat telomerase-expressing malignancies” (The Cleveland Clinic Foundation, priority 1997, dated 2002)

Assays:
U373-MG cells = test: Combination with cisplatin in vitro, MTT assay; format: cell-based, human
Experimental: (§1) FIG. 17. Effect of combining 2-5A-anti-hTR with cisplatin on malignant glioma U373-MG cells in vitro and in vivo. FIG. 17A Tumor cells were treated with 2-5A-anti-hTR (0.5 μM, every 24 hr) mixed with Lipofectamine (1.0 μl/25 μl DMEM) or cisplatin for three days, and their viability was determined by MTT assay. Values represent the means±S.D. FIG. 17B Tumors from U373-MG cells (1.0×10^6 cells in 0.05 ml serum free DMEM and 0.05 ml matrigel) were established subcutaneously in nude mice. After four or five weeks when the tumors were approximately 60-100 mm^3, spA4-anti-hTR (5 nmol/20 μl sterile distilled water) were administrated directly into the tumors daily for 7 days. Cisplatin (1.0 or 5.0 mg/kg/mice) was administered intraperitoneally on Days 1, 3 and 5. Five Mice were used in each treatment group. Tumor volume was then determined using calipers, and the mean sizes ±S.D. were calculated.
To determine if the anti-malignant glioma cell activity of chemotherapeutic agent, cisplatin, could be enhance with SpA4-anti-hTR, a combination therapy protocol was devised (FIG. 17). The point at which 50% cell death was achieved was using 1 microgram per ml of cisplatin plus 0.5 micromolar of SpA4-anti-hTR; whereas in the absence of SpA4-anti-hTR, >10 micrograms per ml of cisplatin were required to achieve 50% cell death (FIG. 17). […] Furthermore, we determined the effect of combining 2-5A-anti-hTR with cisplatin on U373-MG cells in vitro and in vivo. […] The IC50 of cisplatin was reduced from 10.0 to 1.0 μg/ml by combination of spA4-anti-hTR.

U373-MG tumors [1] = test: Combination with cisplatin on subcutaneous tumors in nude mice; format: in vivo; conditions: cisplatin 1 or 5 mg/kg i.p. Days 1, 3, 5 combined with spA4-anti-hTR 5 nmol intratumoral daily 7 days, versus cisplatin alone
Experimental: as §1
To determine if the anti-malignant glioma cell activity of chemotherapeutic agent, cisplatin, could be enhance with SpA4-anti-hTR, a combination therapy protocol was devised (FIG. 17). […] Furthermore, we determined the effect of combining 2-5A-anti-hTR with cisplatin on U373-MG cells in vitro and in vivo. […]

telomerase RNA (hTR) = test: RT-PCR for telomerase RNA in oligonucleotide-treated U251-MG cells; format: cell-based, human; conditions: oligonucleotide 5 μM, 5 hours treatment
Experimental: Chimeric oligonucleotides were synthesised on solid supports and purified as described previously (Torrence et al 1993; Lesiak et al 1993; Xiao et al 1994, 1996; Cirino et al 1997). Tumor cells were seeded at 3×10^5 cells/well (3 ml) in 6-well plates and incubated overnight at 37° C. Cells were then treated with oligonucleotides (5 μM). Five hours later total RNA was isolated by using Trizol solution (GIBCO BRL, Grand Island, N.Y.). Expression of telomerase RNA was determined with RT-PCR. The RNA was reverse transcribed into complementary DNA (cDNA) with random oligos used as a primer, and then the cDNA was diluted three times with buffer 10×PCR buffer (Perkin-Elmer, Norwalk, Conn.) at a final concentration of 1:4. The DNA at each dilution was amplified using primers to antisense and sense sequences on opposite sides of the human telomerase RNA sequence, 5′-[…]-3′ (SEQ ID NO:4) and 5′[…]-3′ […], respectively, or to the GAPDH coding sequence, 5′-[…]-3′ […] and 5′[…]-3′ (SEQ ID NO:7), respectively, producing DNA fragments of 400 bp for telomerase cDNA and 508 bp for the GAPDH cDNA, respectively. The PCR went for 30 cycles (94° C., 1 min; 55° C., 1 min; 72° C., 2 min) for telomerase and 30 cycles (94° C., 1 min; 60° C., 1 min; 74° C., 3 min) for GAPDH. The PCR products were analyzed by 1.2% agarose gel electrophoresis and ethidium bromide staining.
Aliquots of U251-MG cells were treated with the “active” oligonucleotide and the two controls for 5 hours. RNA was then prepared from these cells and subjected to RT-PCR to detect telomerase RNA. […] In contrast, telomerase RNA (hTR) was present in cells treated with the control oligonucleotides; spA2-anti-hTR and spA4-anti-(M6)hTR. Thus, hTR could be selectively destroyed in U251-MG cells. Since the RT-PCR assay is not quantitative, it was not possible to assess whether treatment with the spA2-anti-hTR , which has the fully complementary target sequence, had any antisense effect by itself (see below). […]

U251-MG cells = test: Cell viability assay, trypan blue dye exclusion, oligonucleotide in water every 12 hr; format: cell-based, human; conditions: 5 micromolar every 12 hr; for cell death / effect on viability (in words): 14 days
Experimental: The cytotoxic effect of 2-5A activator antisense complexes on tumor cells was determined using the trypan blue dye exclusion assay. Tumor cells were seeded at 10^4 cells/well (0.1 ml) in 96-well flat-bottomed plates and incubated overnight at 37° C. Then, oligonucleotides (5 micromolar) in water were added into cells every 12 hr. On successive days the cells were harvested and 25% of the total was examined microscopically to determine the percentage of viable cells, another 25% was replated to continue treatment and the remaining 50% were used for the TRAP assay.
Knowing that hTR could be inactivated by the 2-5A antisense treatment, U251-MG cells were treated every 12 hours over a 14 day period with the same three oligonucleotides. 79% of the cells treated with spA4-anti-hTR were killed over the 14 day period with a significant (50%) reduction in cell viability after only 5 days. […] These experiments have since been repeated on a number of occasions with U251-MG cells to test new batches of oligonucleotides, always with the same results. […] Thus, after 14 days from the initial treatment with spA4-anti-hTR, the viability of U251-MG cells, as shown by Trypan-blue exclusion assays, was suppressed in all cases.

U373 cells = test: Viable cell count (trypan blue), daily oligonucleotide plus lipofectamine; format: cell-based, human; conditions: U373, 0.5 micromolar daily plus lipofectamine; for cell viability / viable cell numbers reduced by: 7 days
Experimental: (§2) Cells (10,000/well) were seeded on 96 well tissue culture dishes, and treated every 24 hours. A 10× concentrated mixture of oligonucleotides plus lipofectamine in water was prepared containing 5 micromolar oligonucleotide and 80 microgram per ml lipofectamine™ (Gibco/BRL) and incubated for 10 min at room temperature. Media was removed from the cells, 10 microliters of the oligonucleotide/lipofectamine mixture was added directly to the cultured cells followed by 90 microliters of media plus serum. The media was changed with oligonucleotide/lipofectamine treatments every 24 h. Cells were passaged when the control cells reached confluency, and viable cells were counted after staining with Trypan Blue (GibcoBRL). The numbers of cells treated only with lipofectamine were used as the control to calculate percentages of cell survival or viability.

[2] = test system: renal cell carcinoma cell line, RCC; test: Viable cell count, daily oligonucleotide plus lipofectamine; format: cell-based, human; conditions: 0.5 micromolar daily plus lipofectamine, 3 days
Experimental: as §2
Similarly, the viability of the breast cancer cell line, MDA468, was reduced by 64% by SpA4-anti-hTR, while the control oligonucleotides reduced cell viability by <20% (FIG. 6). Viability of the human melanoma cell line, A375, was reduced by 43% in three days by SpA4-anti-hTR, while the control oligonucleotides had no effect (FIG. 7). […] Viability of a third human melanoma cell line, SK-MEL-5, was reduced by 43% by SpA4-anti-hTR, with minimal effects by the control oligonucleotides (FIG. 7). Two prostate tumor cells lines, PC3 and DU145, were suppressed by SpA4-anti-hTR treatments by 45% and 60%, respectively (FIGS. 6 and 10). […] The viability of the malignant glioma cell line, U373, was reduced by about 60% in 3 days, with intermediate effects by the control oligonucleotides (FIG. 6). Therefore, the proliferation and survival of every tumor cell type tested was inhibited by SpA4-anti-hTR. […] In contrast, there was no apoptosis detected in the control cells treated with lipofectamine without oligonucleotide (FIG. 12 upper panel).

U251-MG tumors [3] = test: Subcutaneous xenografts in nude mice, intratumoral oligonucleotide; format: in vivo, Balb/c nude mice
Experimental: (§3) U251-MG and U373 MG tumor cells (1.0×10^6 cells in 0.1 ml serum free DMEM and 0.1 ml Matrigel) were injected subcutaneously into the right flank of 8-12 week-old female Balb/c nude mice (5 mice for each treatment group). Tumor growth was monitored using calipers every 2- or 3-days. Tumor volume (V) was calculated as (L×W^2)/2, where L=length (mm) and W=width (mm). Oligonucleotide treatment was initiated when the tumors reached an average tumor volume of 60-100 mm^3 (about four to five weeks after injection). Oligonucleotides (5 nmol/20 microliter sterile distilled water) were administered by injecting them directly into the tumor every 24 hr for 7-14 days. Some experiments included lipofectamine at 1 microliter per 20 microliters final volume of oligonucleotide solution. Mice were sacrificed by cervical dislocation the day after the final injection and the tumors were removed, frozen rapidly and 12 μm sections were prepared for histological studies. During all of these experiments, which were approved by the CCF Research Programs Committee, the animals were housed and handled in accordance with the National Institutes of Health guidelines.

U373-MG tumors [4] = test: as above; format: in vivo, Balb/c nude mice; conditions: 5 nmol intratumoral daily for 7 days
Experimental: as §3

U251-MG tumors [5] = test: In situ end-labeling (TUNEL) of DNA in subcutaneous xenografts; format: in vivo, nude mice; conditions: 5 nmol every day for 7 days
Excerpt: FIG. 14. In situ end-labeling of DNA in subcutaneous xenografts of nude mice. After treatment with oligonucleotides (5 nmol, every day) for 7 days, the mice were sacrificed and the subcutaneous mass was removed, frozen, and sectioned on a cryostat. The tumor specimens from U251-MG cells were counterstained by hematoxylin and eosin following the TUNEL technique. Arrows show representatives of tumor cells positive for DNA fragmentation (×400). (above) spA4-anti-(M6)hTR, 7 Day; (below) spA4-anti-hTR, 7 Day.
To further determine whether treatment with oligonucleotides induced apoptosis, tumor cells and tissues were stained by the terminal deoxynucleotidyl transferase (TdT)-mediated DUTP nick end labeling (TUNEL) technique using Apo-Tag kit (peroxidase conjugated) (Oncor Inc., Gaithersburg, Md.). The staining of apoptotic cells was done on U373MG cells. Oligonucleotides with lipofectamine was added to the cells every day. The final concentrations were 0.5 micromolar and 8 microgram/ml for oligo and lipofectamine, respectively. […]
U251-MG and U373 MG tumor cells (1.0×10^6 cells in 0.1 ml serum free DMEM and 0.1 ml Matrigel) were injected subcutaneously into the right flank of 8-12 week-old female Balb/c nude mice (5 mice for each treatment group). Tumor growth was monitored using calipers every 2- or 3-days. Tumor volume (V) was calculated as (L×W^2)/2, where L=length (mm) and W=width (mm). […]

N.N.[Cl][Pt][Cl] [cisplatin]
IC50 of cisplatin (U373-MG cells; U373-MG, in combination with spA4-anti-hTR 0.5 μM every 24 hr plus Lipofectamine, three days, MTT): 1.0 µg/mL | cisplatin required to achieve 50% cell death (U373-MG cells; in the absence of SpA4-anti-hTR): > 10 micrograms per ml | cisplatin at which 50% cell death was achieved (U373-MG cells; plus 0.5 micromolar of SpA4-anti-hTR): 1 microgram per ml | cytotoxic effect of cisplatin on subcutaneous tumors (in words) (U373-MG tumors [1]): significantly enhanced

Sp5′A2′p5′A2p-[(Bu)p]2-5′GCG CGG GGA GCA AAA GCA C3′-3′T5′ (antisense GCGCGGGGAGCAAAAGCAC; 5' 2-5A dimer via butanediol linkers, 3'-3' T cap, chemistry not fully specified) [spA2-anti-hTR, control with only two 2′,5′-linked adenylyl residues, defective 2-5A]
telomerase RNA (hTR) detected by RT-PCR (telomerase RNA (hTR)): present | cell death / effect on viability (in words) (U251-MG cells): mild antisense effect | cells remained viable (U251-MG cells; over the 14 day treatment period): 80% | cell viability / viable cell numbers reduced by (U373 cells): 42% | effect on growth/viability (in words) [2]: no reduction in viability | tumor response (in words) (U251-MG tumors [3]; 14 days treatment): lack of response

Sp5′A2′p(5′A2p)3-[(Bu)p]25′ GCC CGC GGT GCT AAT GCT C3′-3′T5′ (antisense GCCCGCGGTGCTAATGCTC; 5' tetrameric 2-5A via butanediol linkers, 3'-3' T cap, chemistry not fully specified) [spA4-anti-(M6)hTR, control with functional tetrameric 2-5A and six mismatched nucleotides in the antisense cassette]
telomerase RNA (hTR) detected by RT-PCR (telomerase RNA (hTR)): present | cell death / effect on viability (in words) (U251-MG cells): little, if any, cell death | cell viability / viable cell numbers reduced by (U373 cells): 43% | effect on growth/viability (in words) [2]: no reduction in viability | tumor growth (in words) (U251-MG tumors [3]; 5 nmol intratumoral daily for 7 days): continued to increase in size | average net weight of the tumors after treatment (U251-MG tumors [3]; 14 days treatment): 92.0 ± 14.7 mg | tumor response (in words) (U251-MG tumors [3]; 14 days treatment): lack of response | increase in tumor size during the treatment period (U251-MG tumors [3]; intratumoral daily for 14 days, relative to starting size): 87% | tumor growth (in words) (U373-MG tumors [4]): continued to increase in size | apoptotic cells observed in tumors (TUNEL) (U251-MG tumors [5]): a few apoptotic cells

Sp5′A(2′p5′A)3-Bu2-5′GCC CGG GGT GCA AAT GCA C3′-3′T5′ [spA4-anti-(M3)hTR]
cell viability / viable cell numbers reduced by (U373 cells): 76%

Sp5′A(2′p5′A)11-Bu2-5′GCG CGG GGA GCA AAA GCA C3′-3′T5′ (antisense GCGCGGGGAGCAAAAGCAC; 5' 2-5A (A12) via butanediol linkers, 3'-3' T cap, chemistry not fully specified) [spA12-anti-hTR, compound containing twelve 2′,5′-linked adenylyl residues]
anti-cellular activity compared with spA4-anti-hTR (in words) (U373 cells; after 7 days): considerably more anti-cellular activity
